The test system of one test is BxPC3. As to the kind of experiment: In vitro growth inhibition (GI), MTS cell proliferation assay (Table 5), BxPC3. To be noted: Homo sapiens, BXPC-3, 72 hours post-treatment. Format: cell-based. For orientation: Formazan colour is commonly taken as a measure of viable cells.
A further test concerns the target Human HDAC1 (Homo sapiens, UniProt Q13547). As to the kind of experiment: In vitro HDAC inhibition assay, HDAC1. The conditions noted are these: read-out: HDAC isoform IC50, HDAC1; NI = No inhibition at a concentration of 50 pM (footnote b).
For test [1], the system named is L3.6pl pancreatic cancer cells. As to the kind of experiment: Apoptosis by Hoechst staining and PARP cleavage. Format: cell-based. To be noted: 10 μM, 24 hours after the initiation of treatment. The procedure: FIG. 3 contains photographs and Western immunoblots showing that HDAC inhibitors of present invention induce apoptosis on L3.6p1 pancreatic cancer cells. L3.6p1 pancreatic cancer cells were treated with 10 μM of compound 1, 2 or 4 for 24 hrs as indicated. Cells were collected and processed to Hoechst staining (upper panel) and cell lysates were prepared for Western immunoblotting (lower panel). 50 μg of proteins were separated by SDS-PAGE, transferred to PVDF membrane, and immunoblotted as indicated.

The subject of another test is Panc 04.03. As to the kind of experiment: In vitro growth inhibition of pancreatic cancer cell lines (Table 3), Panc 04.03. It is filed as cell-based. To be noted: Homo sapiens, 72 hours post-treatment, cell viability. The procedure:
(§1) In Vitro growth inhibition of pancreatic cancer cell lines. Four of the present HDACIs were analyzed in the [3-(4,5-dimethylthiazol-2-yl)]-2,5-diphenyltetrazolium bromide (MTT) assay in four pancreatic cancer cell lines (Table 3).

The next test concerns the target T1, Human HDAC6 (Homo sapiens, UniProt Q9UBN7).
T1 construct: Full length with N-terminal GST tag, MW=159 kDa; GST (N); host or cells: baculovirus expression system, Sf9 cells
T1 sequence (Q9UBN7 1-1215): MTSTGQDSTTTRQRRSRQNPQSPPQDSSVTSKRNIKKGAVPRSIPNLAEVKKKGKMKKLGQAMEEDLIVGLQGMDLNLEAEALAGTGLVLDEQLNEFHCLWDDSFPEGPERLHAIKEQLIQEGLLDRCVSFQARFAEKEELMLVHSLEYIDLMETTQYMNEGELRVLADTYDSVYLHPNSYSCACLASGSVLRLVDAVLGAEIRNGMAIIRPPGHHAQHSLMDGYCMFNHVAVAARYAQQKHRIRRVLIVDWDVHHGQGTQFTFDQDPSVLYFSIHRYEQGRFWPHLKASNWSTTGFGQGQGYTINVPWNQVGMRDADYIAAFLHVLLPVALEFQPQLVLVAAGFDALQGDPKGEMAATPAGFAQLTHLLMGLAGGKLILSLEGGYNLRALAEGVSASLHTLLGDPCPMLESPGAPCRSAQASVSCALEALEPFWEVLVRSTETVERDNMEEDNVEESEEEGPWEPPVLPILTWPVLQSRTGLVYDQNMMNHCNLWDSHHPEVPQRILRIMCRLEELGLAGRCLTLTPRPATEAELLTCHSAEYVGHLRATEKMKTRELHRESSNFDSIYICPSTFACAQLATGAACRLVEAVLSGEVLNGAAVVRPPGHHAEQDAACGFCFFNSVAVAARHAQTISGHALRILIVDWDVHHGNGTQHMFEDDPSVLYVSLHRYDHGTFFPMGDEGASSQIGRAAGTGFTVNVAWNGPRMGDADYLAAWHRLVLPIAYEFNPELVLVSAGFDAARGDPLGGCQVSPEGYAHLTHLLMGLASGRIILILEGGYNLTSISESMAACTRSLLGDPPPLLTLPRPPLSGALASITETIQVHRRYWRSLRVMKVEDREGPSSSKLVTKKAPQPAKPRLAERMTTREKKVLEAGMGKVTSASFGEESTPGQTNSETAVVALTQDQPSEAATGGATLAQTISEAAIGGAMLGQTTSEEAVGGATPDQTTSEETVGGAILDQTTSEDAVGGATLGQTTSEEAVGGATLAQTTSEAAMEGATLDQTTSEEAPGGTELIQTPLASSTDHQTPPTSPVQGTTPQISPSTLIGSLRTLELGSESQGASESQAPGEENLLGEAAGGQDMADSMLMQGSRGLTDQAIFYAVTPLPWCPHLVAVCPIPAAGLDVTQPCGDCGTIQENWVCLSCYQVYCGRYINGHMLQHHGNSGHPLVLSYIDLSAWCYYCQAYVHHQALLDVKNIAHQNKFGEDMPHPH
As to the kind of experiment: In vitro HDAC inhibition assay, HDAC6. It is filed as biochemical. The conditions noted are these: read-out: HDAC isoform IC50, HDAC6.

In the next test the test system is BxPC-3. As to the kind of experiment: In vitro growth inhibition of pancreatic cancer cell lines (Table 3), BxPC-3. It is filed as cell-based. The conditions noted are these: Homo sapiens, 72 hours post-treatment, cell viability. The procedure:
as §1

In the next test the test system is Mia PaCa-2. As to the kind of experiment: In vitro growth inhibition of pancreatic cancer cell lines (Table 3), Mia PaCa-2. It is filed as cell-based. The conditions noted are these: Homo sapiens, 72 hours post-treatment, cell viability. The procedure:
as §1

Another test has as its target HDAC3/NcoR2 complex (Homo sapiens, UniProt O15379). As to the kind of experiment: In vitro HDAC inhibition assay, HDAC3. Format: biochemical. To be noted: NI = No inhibition at a concentration of 50 pM (footnote b); read-out: HDAC isoform IC50, HDAC3.
The target of the next test is HDAC2 (Homo sapiens, UniProt Q92769). As to the kind of experiment: In vitro HDAC inhibition assay, HDAC2. It is filed as biochemical. To be noted: NI = No inhibition at a concentration of 50 pM (footnote b); read-out: HDAC isoform IC50, HDAC2.
The target in a further test is T2, HDAC10 (Homo sapiens, UniProt Q969S8).
T2 sequence (Q969S8 1-669): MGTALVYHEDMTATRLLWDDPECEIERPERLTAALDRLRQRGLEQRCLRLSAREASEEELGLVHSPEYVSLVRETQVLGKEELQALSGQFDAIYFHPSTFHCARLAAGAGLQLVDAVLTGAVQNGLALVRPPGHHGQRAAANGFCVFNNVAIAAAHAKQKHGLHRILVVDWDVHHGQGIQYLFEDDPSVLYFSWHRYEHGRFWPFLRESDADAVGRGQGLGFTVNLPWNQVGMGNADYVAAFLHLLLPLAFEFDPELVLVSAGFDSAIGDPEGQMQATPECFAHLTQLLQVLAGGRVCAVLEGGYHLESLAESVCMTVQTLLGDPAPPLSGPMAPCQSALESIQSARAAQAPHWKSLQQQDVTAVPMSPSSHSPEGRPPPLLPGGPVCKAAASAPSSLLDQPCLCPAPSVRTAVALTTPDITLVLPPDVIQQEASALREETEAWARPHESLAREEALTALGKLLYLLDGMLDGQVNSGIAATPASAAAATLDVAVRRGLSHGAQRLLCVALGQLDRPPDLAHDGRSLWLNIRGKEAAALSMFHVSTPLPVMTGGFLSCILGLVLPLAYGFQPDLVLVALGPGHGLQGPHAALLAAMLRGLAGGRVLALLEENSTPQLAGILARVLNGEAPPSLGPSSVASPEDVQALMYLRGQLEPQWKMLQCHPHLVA
As to the kind of experiment: In vitro HDAC inhibition assay, HDAC10. It is filed as biochemical. The conditions noted are these: NI = No inhibition at a concentration of 50 pM (footnote b); read-out: HDAC isoform IC50, HDAC10.

For a further test, the system named is PANC1. As to the kind of experiment: In vitro growth inhibition of pancreatic cancer cell lines (Table 3), PANC1. To be noted: Homo sapiens, PANC-1; 72 hours post-treatment, cell viability. It is filed as cell-based. The procedure: as §1
The test system of a further test is L3.6pl. As to the kind of experiment: In vitro growth inhibition (GI), MTS cell proliferation assay (Table 5), L3.6pl. It is filed as cell-based. To be noted: Homo sapiens, 72 hours post-treatment.

The GI50 is the concentration giving 50% growth inhibition. Usually IC50 stands for the concentration needed to halve the response being measured.

Chain of Human HDAC1 (Q13547 whole entry, canonical isoform): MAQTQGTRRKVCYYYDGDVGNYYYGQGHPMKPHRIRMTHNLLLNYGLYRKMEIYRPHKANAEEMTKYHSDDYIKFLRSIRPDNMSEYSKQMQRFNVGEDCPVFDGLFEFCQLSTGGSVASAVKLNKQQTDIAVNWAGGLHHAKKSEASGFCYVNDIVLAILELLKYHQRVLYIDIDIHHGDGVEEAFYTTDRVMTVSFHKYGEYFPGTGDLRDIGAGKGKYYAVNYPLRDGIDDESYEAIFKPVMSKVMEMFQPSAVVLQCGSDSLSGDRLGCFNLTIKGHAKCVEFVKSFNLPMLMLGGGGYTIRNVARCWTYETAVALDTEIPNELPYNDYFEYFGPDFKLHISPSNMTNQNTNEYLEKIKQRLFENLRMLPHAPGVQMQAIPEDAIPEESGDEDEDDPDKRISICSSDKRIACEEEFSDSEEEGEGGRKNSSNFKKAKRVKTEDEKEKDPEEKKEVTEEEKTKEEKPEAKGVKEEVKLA
Chain of HDAC2 (Q92769 whole entry, canonical isoform): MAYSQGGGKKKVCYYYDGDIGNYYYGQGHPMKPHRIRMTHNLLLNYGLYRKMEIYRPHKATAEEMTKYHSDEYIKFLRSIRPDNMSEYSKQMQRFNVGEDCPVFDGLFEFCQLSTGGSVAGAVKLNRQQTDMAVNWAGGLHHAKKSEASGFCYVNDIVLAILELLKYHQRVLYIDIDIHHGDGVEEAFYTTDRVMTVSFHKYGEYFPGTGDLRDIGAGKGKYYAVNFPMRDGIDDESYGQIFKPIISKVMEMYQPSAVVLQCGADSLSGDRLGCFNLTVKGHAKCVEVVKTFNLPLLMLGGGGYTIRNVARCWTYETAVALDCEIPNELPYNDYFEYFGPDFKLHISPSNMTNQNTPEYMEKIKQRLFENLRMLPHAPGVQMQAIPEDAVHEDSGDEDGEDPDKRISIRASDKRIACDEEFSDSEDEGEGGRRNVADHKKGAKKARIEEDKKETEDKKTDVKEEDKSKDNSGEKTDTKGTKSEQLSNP
Chain of HDAC3/NcoR2 complex (O15379 whole entry, canonical isoform): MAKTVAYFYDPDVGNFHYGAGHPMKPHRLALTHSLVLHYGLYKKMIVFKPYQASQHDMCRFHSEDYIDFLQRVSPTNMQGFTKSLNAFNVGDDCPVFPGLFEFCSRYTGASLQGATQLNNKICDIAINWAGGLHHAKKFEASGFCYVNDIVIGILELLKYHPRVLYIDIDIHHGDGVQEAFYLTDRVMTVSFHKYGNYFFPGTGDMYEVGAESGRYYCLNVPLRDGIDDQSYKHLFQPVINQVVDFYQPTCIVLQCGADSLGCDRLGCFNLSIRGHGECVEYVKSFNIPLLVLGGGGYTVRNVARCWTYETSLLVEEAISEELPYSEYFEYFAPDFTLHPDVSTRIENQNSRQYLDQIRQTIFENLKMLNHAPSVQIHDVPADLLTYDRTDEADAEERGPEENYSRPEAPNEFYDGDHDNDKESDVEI
Chain of HDAC3/NcoR2 complex (Q9Y618 395-489 partner limits assumed): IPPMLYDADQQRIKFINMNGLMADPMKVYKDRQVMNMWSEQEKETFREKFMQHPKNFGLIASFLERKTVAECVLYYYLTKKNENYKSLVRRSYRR

As to `O=C(CCCc1cc(C(=O)NO)no1)Nc1nc(-c2ccccc2)cs1` [Compound 2, 5-[3-(4-Phenyl-thiazol-2-ylcarbamoyl)-propyl]-isoxazole-3-carboxylic acid hydroxyamide], the figures for the GI50 in the test with BxPC3 and in the test on L3.6pl were 2.3 µM and 0.7 µM, respectively. For the same molecule, the IC50 on Human HDAC1 was 0.351 µM; in the test with Panc 04.03, 48.4 µM; at Human HDAC6 it was 0.0818 µM; in the test on BxPC-3, 20.8 µM; in the test on Mia PaCa-2 it was 1.3 µM; on HDAC3/NcoR2 complex, 0.934 µM. Moreover, the 50% inhibitory concentration (IC50) at HDAC2 came out at 1.22 µM; at HDAC10, 0.854 µM; in the test on PANC1, 2.5 µM. Also, the “Induction of apoptosis (Hoechst staining and PARP cleavage)” value in test [1] is recorded as “effectively induced apoptosis”.

Turning to `CCOC(=O)Nc1ccc(-c2csc(NC(=O)CCCc3cc(C(=O)NO)no3)n2)cc1` [Compound 4, (4-{2-[4-(3-Hydroxycarbamoyl-isoxazol-5-yl)-butyrylamino]-thiazol-4-yl}-phenyl)-carbamic acid ethyl ester], the GI50 with BxPC3 and in the test on L3.6pl was 1.7 µM in each case. Also, the IC50 at Human HDAC1 turned out to be 0.2 µM; in the test with Panc 04.03, 13.5 µM; on Human HDAC6 it was 0.0489 µM; with BxPC-3 it was 15.2 µM; in the test with Mia PaCa-2, 1.9 µM; at HDAC3/NcoR2 complex, 0.354 µM. Besides, the IC50 at HDAC2 was 0.834 µM; at HDAC10, 0.323 µM; in the test on PANC1, 11 µM. Further, the “Induction of apoptosis (Hoechst staining and PARP cleavage)” value in [1] is “effectively induced apoptosis”.

Source of the values: US11739064B2, “HDAC inhibitors and therapeutic methods using the same” (THE BOARD OF TRUSTEES OF THE UNIVERSITY OF ILLINOIS, priority 2015, dated 2023).
